Test results reported in patent US12016858B2, “Methods for the treatment of abnormal involuntary movement disorders” (AUSPEX PHARMACEUTICALS, INC., priority 2015, dated 2024).

System: patients with moderate to severe tardive dyskinesia
Experiment: ARM-TD randomized, double-blind, placebo-controlled study
Format: in vivo, human
Excerpt: An additional clinical study, Aim to Reduce Movements in […] Dyskinesia (ARM-TD) was designed and conducted to evaluate the efficacy of SD-809 (deutetrabenazine) in the treatment of moderate to severe tardive dyskinesia. […] Subjects were screened for inclusion in the study as follows. Inclusion criteria included: between 18 and 75 years of age, inclusive; history of using a dopamine receptor antagonist for at least 3 months (or 1 month in subjects 60 years of age and older); clinical diagnosis of TD, and has had symptoms for at least 3 months prior to Screening; […] Dosing. […] Drug was then administered at that dose for another six weeks for a total treatment of 12 weeks, followed by a 1-week washout period. […] Dose suspensions of up to one week were permitted if the subject experienced a clinically significant adverse event. Study Objectives and Endpoints. The objectives of the study was to evaluate the efficacy of SD-809 in reducing the severity of abnormal involuntary movements associated with tardive dyskinesia and the safety and tolerability of titration and maintenance therapy with deutetrabenazine in subjects with drug-induced tardive dyskinesia. […] Baseline AIMS score is defined for each subject as the Day 0 assessment. The AIMS is composed of 12 clinician-administered and scored items. Items 1-10 are rated on a 5-point, anchored scale and consist of the following: • Items 1-4 assess orofacial movements; • Items 5-7 deal with extremity and truncal dyskinesia; • Items 8-10 deal with global severity as judged by the examiner, and the patient's awareness of the movements and the distress associated with them; and • Items 11-12 are yes/no questions concerning problems associated with teeth and/or dentures, as such problems can be mistaken for dyskinesia. […] As with previous studies, […] treatment success may be defined as Much or Very Much Improved on a 7-point Likert Scale, ranging from very much worse to very much improved at Week 12. The CDQ-24 is a disease-specific quality of life questionnaire developed for use in patients with craniocervical dystonia, including both cervical dystonia (CD) and blepharospasm (BPS). The CDQ-24 was selected for use in the present study because it includes domains which are relevant not only to CD and BPS, but to TD, such as stigma, emotional well-being, pain, activities of daily living, and social/family life. For the present study, the CDQ-24 has been modified such that the questions focus more directly on the impact of TD (as opposed to CD/BPS) on quality of life. […] Measurements and Statistics. Digital video recordings of AIMS assessments made at all clinic visits (at Screening, Baseline, Weeks 2, 4, 6, 9, and 12) were rated by pairs of central raters who were experts in movement disorders and were blinded to treatment arm, sequence of video, and the investigator AIMS score. Analysis was carried out using a linear mixed model for repeated measurements (MMRM) with the change in the AIMS score as the dependent variable. The model included fixed effects for treatment group, time point (five levels: Weeks 2, 4, 6, 9, and 12), the treatment group by time point interaction, and the randomization stratification variable. The unstructured covariance model was used and the primary analysis compared the deutetrabenazine and placebo groups at Week 12 using a two-sided test at the 5% level of significance.

[1] = n = 58, count (percent), listed as DTBZ

[2H]C([2H])([2H])Oc1cc2c(cc1OC([2H])([2H])[2H])C1CC(=O)C(CC(C)C)CN1CC2 (stereo not drawn) [deutetrabenazine, (RR, SS)-1,3,4,6,7,11b-hexahydro-9,10-di(methoxy-d3)-3-(2-methylpropyl)-2H-benzo[a]quinolizin-2-one]
CGIC Treatment Success, Treatment Difference (DTBZ vs Placebo): 7.90%
Change from baseline mCDQ-24, Treatment Difference (DTBZ vs Placebo): −2.7
PGIC Treatment Success, Treatment Difference (DTBZ vs Placebo): 13.00%
AIMS Change (LS Mean), Treatment Difference (DTBZ vs Placebo, p-value 0.0188): −1.4
Change from baseline mCDQ-24 (N = 56): −11.1
CGIC Treatment Success (%) (Week 12, N = 56): 48.20%
PGIC Treatment Success N (%) (Week 12, N = 56): 42.90%
AIMS Change (LS Mean) (baseline to Week 12, N = 56): −3
improvement on the AIMS score (baseline to end of therapy): 3.0 points
Depression/depressed mood reported (in vivo): one patient
suicidal ideation reported (in vivo): none
Any TEAEs (Treatment-Emergent Adverse Events) (n = 58, count (percent)): 41 (70.7%)
TEAE Anxiety (n = 58, count (percent)): 3 (5.2%)
TEAE Chest pain (n = 58, count (percent)): 1 (1.7%)
TEAE Constipation (n = 58, count (percent)): 2 (3.4%)
TEAE Diarrhea (n = 58, count (percent)): 3 (5.2%)
TEAE Dizziness (n = 58, count (percent)): 2 (3.4%)
TEAE Dry mouth (n = 58, count (percent)): 2 (3.4%)
TEAE Fatigue (n = 58, count (percent)): 4 (6.9%)
TEAE Headache (n = 58, count (percent)): 4 (6.9%)
TEAE Nasopharyngitis (n = 58, count (percent)): 2 (3.4%)
TEAE Nausea (n = 58, count (percent)): 2 (3.4%)
TEAE Pneumonia (n = 58, count (percent)): 1 (1.7%)
TEAE Upper respiratory tract infection (n = 58, count (percent)): 2 (3.4%)
TEAE Vomiting (n = 58, count (percent)): 1 (1.7%)
Serious TEAEs [1]: 4 (6.9%)
TEAE Akathisia [1]: 3 (5.2%)
TEAE Insomnia [1]: 4 (6.9%)
TEAE Somnolence/sedation [1]: 9 (15.5%)
TEAEs Resulting in Study Withdrawal [1]: 1 (1.7%)
